# Experimental data from patent US20180037923A1, “SELECTIVE DETECTION OF LACTIC ACID AND/OR ACETIC ACID BACTERIA OR OF FUNGI” (priority 2015, published 2018).
# Tests used:
# [1] = tested on: yeast populations versus lactic acid and acetic acid bacteria; assay: Concentration threshold for being antifungal while non-bactericidal; type: cell-based; conditions: estimated
# Method: It is estimated that for the molecule A1 the concentration threshold allowing to obtain the effect of the invention of being non-bactericidal for the lactic acid and acetic acid bacteria while being antifungal for the yeast populations is comprised within 50 mg/l or 50 mg/l and 100 mg/l.
# In order to determine whether a particular molecule is suitable for the invention, a person skilled in the art may constitute a first list of antifungal products and a second list of non-bactericidal products for bacteria and select the products appearing in the first and second list for which the fungicidal activity intervenes prior to the bactericidal activity. However, an experimental verification of the fungicidal activity will be necessary to determine the minimum antifungal concentration per mg/L or in microgram per milliliter depending on the targeted fungal flora.
# [2] = tested on: Sacch. Cerevisae DSM 70449; assay: Agar plate count after contact with antifungal; type: cell-based, Saccharomyces cerevisae; conditions: for Agar plate count contact time 4 h: 400 mg/L
# Source text: (§1) The word “bactericide” refers to a treatment having the effect of reducing a bacterial population by at least three decimal logarithms of colony forming units/ml on an agar plate count of a sample after treatment.
# (§2) The toxicity results on yeasts and on bacteria are presented in the table below displaying the duration of exposure of the fungal flora to molecule A1 and the associated fluorescence measurement: yeasts lysis after exposure to the antifungal was confirmed by microscopic examination and methylene blue staining.
# (§3) The words “contact time” refer to below, the time of exposure of the microorganisms to the fungicidal product, here molecule A1.
# (§4) Below: “No CFU” is the abbreviation for “No Colony forming unit on agar plate count”.
# (§5) The toxicity results on yeasts and on bacteria are presented in the table below displaying the duration of exposure of the fungal flora to the molecule A2 and are obtained by enumeration on MRS agar media.
# Pedicoccus damnosus IFBM = assay: Agar plate count after contact with antifungal; type: cell-based
# Source text: as §1, §2, §3, §4, §5
# [3] = tested on: Lactobacillus lindneri DSM 20690; assay: Agar plate count after contact with antifungal; type: cell-based
# Source text: as §1, §2, §3, §4, §5
# [4] = tested on: Acetobacter aceti DSM 3508; assay: Agar plate count after contact with antifungal; type: cell-based; conditions: count at contact time 0 h 2.9.10^7 CFU/mL
# Source text: as §1, §2, §3, §4, §5
# Dekkera anomala IFBM = assay: Agar plate count after contact with antifungal; type: cell-based
# Source text: as §1, §2, §3, §4, §5
# [5] = tested on: Lactobacillus brevis IFBM; assay: Agar plate count after contact with antifungal; type: cell-based; conditions: count at contact time 0 h 7.10^5 CFU/mL
# Source text: as §1, §2, §3, §4, §5
# [6] = tested on: Lactobacillus parabuchneri DSM 5708; assay: Agar plate count after contact with antifungal; type: cell-based; conditions: count at contact time 0 h 1.4.10^6 CFU/mL
# Source text: as §1, §2, §3, §4, §5
# [7] = tested on: Lactobacillus paracasei IFBM; assay: Agar plate count after contact with antifungal; type: cell-based; conditions: count at contact time 0 h 1.4.10^7 CFU/mL
# Source text: as §1, §2, §3, §4, §5
# [8] = tested on: Oenococcus oeni DSM 20252; assay: Agar plate count after contact with antifungal; type: cell-based
# Source text: as §1, §2, §3, §4, §5
# [9] = tested on: Brettanomyces bruxellensis Wyeast labs; assay: Agar plate count after contact with antifungal; type: cell-based
# Source text: as §1, §2, §3, §4, §5
# G. oxydans DSM 7145 = assay: Agar plate count after contact with antifungal; type: cell-based, Gluconobacter oxydans
# Source text: as §1, §2, §3, §4, §5
# [10] = tested on: lactic acid bacteria and acetic acid bacteria; assay: Bactericidal action on the bacterial flora (conclusion from agar plate counts); type: cell-based; conditions: for Bactericidal action on lactic acid and acetic acid flora: bactericide = reduction by at least three decimal logarithms of CFU/ml
# Source text: as §1, §2, §5
# Sacch. Diastaticus IFBM = assay: Agar plate count after contact with antifungal; type: cell-based, Saccharomyces diastaticus
# Source text: as §1, §2, §3, §4, §5
# [11] = tested on: Sacch. Cerevisae Saflager S23; assay: Agar plate count after contact with antifungal; type: cell-based, Saccharomyces cerevisae; conditions: 400 mg/L
# Source text: as §1, §2, §3, §4, §5
# [12] = tested on: Zyggosaccharomyces bailii; assay: Agar plate count after contact with antifungal; type: cell-based; conditions: 400 mg/L
# Source text: as §1, §2, §3, §4, §5
# [13] = 400 mg/L, count at contact time 0 h 1.1.10^5 CFU/mL
# [14] = 400 mg/L, count at contact time 0 h 6.10^5 CFU/mL
# [15] = 400 mg/L, count at contact time 0 h 4.10^7 CFU/mL
# [16] = 400 mg/L, count at contact time 0 h 8.10^7 CFU/mL
# [17] = count at contact time 0 h 2.10^5 CFU/mL
# [18] = 200 mg/L, count at contact time 0 h 7.2.10^5 CFU/mL
# [19] = 200 mg/L, count at contact time 0 h 6.10^6 CFU/mL
# [20] = 200 mg/L, count at contact time 0 h 4.10^9 CFU/mL
# [21] = 200 mg/L, count at contact time 0 h 8.10^8 CFU/mL
smiles,measurement,setting,value
"C[C@@H]1C[C@@H]([C@H](O)CC2CC(=O)NC(=O)C2)C(=O)[C@@H](C)C1 [Molecule A4, cycloheximide]",Concentration threshold allowing to obtain the effect of the invention,[1],greater than 300 mg/l
same,Agar plate count contact time 18 h,"[2]; Test No 2: 400 mg/L, count at contact time 0 h 5.10^4 CFU/mL",No CFU
same,Agar plate count contact time 18 h,Pedicoccus damnosus IFBM; [13],4.10^4 CFU/mL
same,Agar plate count contact time 18 h,[3]; [14],1.10^5 CFU/mL
same,Agar plate count contact time 18 h,[4]; 400 mg/L,9.10^7 CFU/mL
same,Agar plate count contact time 18 h,"Dekkera anomala IFBM; Test No 2: 400 mg/L, count at contact time 0 h 1.10^5 CFU/mL",1.2.10^1 CFU/mL
same,Agar plate count contact time 18 h,[5]; 400 mg/L,2.10^6 CFU/mL
same,Agar plate count contact time 18 h,[6]; 400 mg/L,6.10^6 CFU/mL
same,Agar plate count contact time 18 h,[7]; 400 mg/L,3.10^7 CFU/mL
same,Agar plate count contact time 18 h,[8]; [15],1.10^8 CFU/mL
same,Agar plate count contact time 18 h,"[9]; Test No 2: 400 mg/L, count at contact time 0 h 7.3.10^5 CFU/mL",No CFU
same,Agar plate count contact time 18 h,G. oxydans DSM 7145; [16],1.10^8 CFU/mL
same,Effect on bacteria cell integrity,[10]; doses of 400 mg/liter or more,preserves bacteria cell integrity
same,Agar plate count contact time 18 h,"Sacch. Diastaticus IFBM; Test No 2: 400 mg/L, count at contact time 0 h 4.10^4 CFU/mL",No CFU
"CC[C@H](C)C[C@H](C)CCCCCCCCC(=O)N[C@H]1C[C@@H](O)[C@@H](NCCN)NC(=O)[C@@H]2[C@@H](O)CCN2C(=O)[C@H]([C@H](O)CCN)NC(=O)[C@H]([C@H](O)[C@@H](O)c2ccc(O)cc2)NC(=O)[C@@H]2C[C@@H](O)CN2C(=O)[C@H]([C@@H](C)O)NC1=O [Molecule A5, caspofungin]",Agar plate count contact time 4 h,[11]; count at contact time 0 h 3.10^5 CFU/mL,No CFU
same,Agar plate count contact time 4 h,[2]; [17],No CFU
same,Agar plate count contact time 4 h,Pedicoccus damnosus IFBM; [18],No CFU
same,Agar plate count contact time 4 h,Pedicoccus damnosus IFBM; [13],No CFU
same,Agar plate count contact time 4 h,[3]; [19],9.10^1 CFU/mL
same,Agar plate count contact time 4 h,[3]; [14],1.10^2 CFU/mL
same,Agar plate count contact time 4 h,[4]; 200 mg/L,1.10^5 CFU/mL
same,Agar plate count contact time 4 h,[4]; 400 mg/L,2.10^6 CFU/mL
same,Agar plate count contact time 4 h,"Dekkera anomala IFBM; 400 mg/L, count at contact time 0 h 1.4.10^4 CFU/mL",No CFU
same,Agar plate count contact time 4 h,[5]; 200 mg/L,1.10^2 CFU/mL
same,Agar plate count contact time 4 h,[5]; 400 mg/L,2.10^2 CFU/mL
same,Agar plate count contact time 4 h,[6]; 200 mg/L,No CFU
same,Agar plate count contact time 4 h,[6]; 400 mg/L,No CFU
same,Agar plate count contact time 4 h,[7]; 200 mg/L,1.1.10^4 CFU/mL
same,Agar plate count contact time 4 h,[7]; 400 mg/L,1.10^2 CFU/mL
same,Agar plate count contact time 4 h,[8]; [20],6.10^9 CFU/mL
same,Agar plate count contact time 4 h,[8]; [15],5.10^7 CFU/mL
same,Agar plate count contact time 4 h,[9]; [19],No CFU
same,Agar plate count contact time 4 h,"[9]; 400 mg/L, count at contact time 0 h 1.7.10^4 CFU/mL",No CFU
same,Agar plate count contact time 4 h,[12]; [17],No CFU
same,Agar plate count contact time 4 h,G. oxydans DSM 7145; [21],1.10^9 CFU/mL
same,Agar plate count contact time 4 h,G. oxydans DSM 7145; [16],9.10^7 CFU/mL
same,Bactericidal action on acetic acid bacteria and the lactic acid bacteria oenooccus oeni,[10]; doses of 200 mg/liter,non-bactericidal
same,Bactericidal action on acetic acid bacteria and the lactic acid bacteria oenooccus oeni,[10]; doses of 400 mg/liter,non-bactericidal
same,Agar plate count contact time 4 h,"Sacch. Diastaticus IFBM; 400 mg/L, count at contact time 0 h 4.10^4 CFU/mL",No CFU
"C[C@@H](c1ncncc1F)[C@](O)(Cn1cncn1)c1ccc(F)cc1F [Molecule A3, voriconazole]",Agar plate count contact time 18 h,Pedicoccus damnosus IFBM; [18],1.5.10^5 CFU/mL
same,Agar plate count contact time 18 h,Pedicoccus damnosus IFBM; [13],2.10^4 CFU/mL
same,Agar plate count contact time 18 h,[3]; [19],1.10^6 CFU/mL
same,Agar plate count contact time 18 h,[3]; [14],7.10^4 CFU/mL
same,Agar plate count contact time 18 h,[4]; 200 mg/L,6.10^6 CFU/mL
same,Agar plate count contact time 18 h,[4]; 400 mg/L,4.10^7 CFU/mL
same,Agar plate count contact time 18 h,"Dekkera anomala IFBM; 400 mg/L, count at contact time 0 h 7.10^5 CFU/mL",No CFU
same,Agar plate count contact time 18 h,[5]; 200 mg/L,1.10^6 CFU/mL
same,Agar plate count contact time 18 h,[5]; 400 mg/L,1.10^6 CFU/mL
same,Agar plate count contact time 18 h,[6]; 200 mg/L,5.10^5 CFU/mL
same,Agar plate count contact time 18 h,[6]; 400 mg/L,6.10^5 CFU/mL
same,Agar plate count contact time 18 h,[7]; 200 mg/L,5.10^7 CFU/mL
same,Agar plate count contact time 18 h,[7]; 400 mg/L,2.10^7 CFU/mL
same,Agar plate count contact time 18 h,[8]; [20],6.10^9 CFU/mL
same,Agar plate count contact time 18 h,[8]; [15],1.10^8 CFU/mL
same,Agar plate count contact time 18 h,[9]; [19],9.10^1 CFU/mL
same,Agar plate count contact time 18 h,"[9]; 400 mg/L, count at contact time 0 h 8.10^4 CFU/mL",No CFU
same,Agar plate count contact time 18 h,G. oxydans DSM 7145; [21],1.10^9 CFU/mL
same,Agar plate count contact time 18 h,G. oxydans DSM 7145; [16],1.10^8 CFU/mL
same,Bactericidal action on lactic acid and acetic acid flora,[10]; doses of 200 mg/liter,neither bactericidal for the lactic acid flora nor bactericidal for the acetic acid flora
same,Bactericidal action on lactic acid and acetic acid flora,[10]; doses of 400 mg/liter,neither bactericidal for the lactic acid flora nor bactericidal for the acetic acid flora
same,Agar plate count contact time 18 h,"Sacch. Diastaticus IFBM; 400 mg/L, count at contact time 0 h 1.10^4 CFU/mL",No CFU
"CCC(C)(C)c1ccc(CC(C)CN2C[C@@H](C)O[C@@H](C)C2)cc1 (some centres unmarked) [Molecule A2, Amorolfine]",Agar plate count contact time 4 h,[11]; count at contact time 0 h 3.2.10^5 CFU/mL,No CFU
same,Agar plate count contact time 4 h,[2]; count at contact time 0 h 5.8.10^5 CFU/mL,No CFU
same,Agar plate count contact time 4 h,Pedicoccus damnosus IFBM; [18],1.5.10^5 CFU/mL
same,Agar plate count contact time 4 h,Pedicoccus damnosus IFBM; [13],1.10^4 CFU/mL
same,Agar plate count contact time 4 h,[3]; [19],1.10^6 CFU/mL
same,Agar plate count contact time 4 h,[3]; [14],5.10^5 CFU/mL
same,Agar plate count contact time 4 h,[4]; 200 mg/L,6.10^6 CFU/mL
same,Agar plate count contact time 4 h,[4]; 400 mg/L,9.10^6 CFU/mL
same,Agar plate count contact time 4 h,"Dekkera anomala IFBM; 400 mg/L, count at contact time 0 h 5.10^3 CFU/mL",No CFU
same,Agar plate count contact time 4 h,[5]; 200 mg/L,1.10^6 CFU/mL
same,Agar plate count contact time 4 h,[5]; 400 mg/L,8.10^5 CFU/mL
same,Agar plate count contact time 4 h,[6]; 200 mg/L,5.10^5 CFU/mL
same,Agar plate count contact time 4 h,[6]; 400 mg/L,3.10^4 CFU/mL
same,Agar plate count contact time 4 h,[7]; 200 mg/L,5.10^7 CFU/mL
same,Agar plate count contact time 4 h,[7]; 400 mg/L,4.10^7 CFU/mL
same,Agar plate count contact time 4 h,[8]; [20],6.10^9 CFU/mL
same,Agar plate count contact time 4 h,[8]; [15],5.10^7 CFU/mL
same,Agar plate count contact time 4 h,[9]; [19],No CFU
same,Agar plate count contact time 4 h,"[9]; 400 mg/L, count at contact time 0 h 1.8.10^6 CFU/mL",No CFU
same,Agar plate count contact time 4 h,[12]; count at contact time 0 h 2.2.10^6 CFU/mL,No CFU
same,Agar plate count contact time 4 h,G. oxydans DSM 7145; [21],1.10^9 CFU/mL
same,Agar plate count contact time 4 h,G. oxydans DSM 7145; [16],9.10^7 CFU/mL
same,Bactericidal action on lactic acid and acetic acid flora,[10]; doses of 200 mg/liter,neither bactericidal for the lactic acid flora nor bactericidal for the acetic acid flora
same,Bactericidal action on lactic acid and acetic acid flora,[10]; doses of 400 mg/liter,neither bactericidal for the lactic acid flora nor bactericidal for the acetic acid flora
same,Agar plate count contact time 4 h,"Sacch. Diastaticus IFBM; 400 mg/L, count at contact time 0 h 2.10^6 CFU/mL",No CFU
